Test results: PMC11601558, “SLC6A19 inhibition facilitates urinary neutral amino acid excretion and lowers plasma phenylalanine” (JCI Insight, 2024)
Where “and” joins values, the source holds several entries; their conditions need not be identical. Equal values may be shown once.

Tested on: Pah^enu2 mice
Assay: Urine amino acid excretion in Pah^enu2 mice after JN-170
Type: in vivo, mouse
Set-up: urine Gln excretion / urine Phe excretion: unit not given here
Details: for 12-hour urine Phe excretion (Fig 3c): individual Pah^enu2 mice
Method: Male homozygous BTBR-Pah<enu2>/J (Pah^enu2) aged 10–13 weeks were purchased from Jackson Laboratory (no. 002232). Immediately before dosing, each animal’s bladder was manually emptied and a plasma sample was drawn. Animals were dosed by oral gavage with vehicle (10% DMSO, 20% 2-hydroxypropyl-β-cyclodextrin [Sigma-Aldrich]) followed by a 1-week washout prior to dosing with JN-170 at doses ranging from 50 to 250 mg/kg. Following dosing with vehicle or JN-170, animals were individually placed in metabolic cages to collect urine samples. After collection of each urine sample, cages were rinsed with ultra-pure water to recover residual analytes. Blood samples were collected predose as well as 1, 3, 8, 12, and 24 hours after dosing with vehicle or JN-170 into tubes with EDTA as a […], and plasma was separated by centrifuging samples at 2,200g for 5 minutes at 4°C. Throughout the study, mice had access to food and water ad libitum. Plasma and urine samples were stored at –80°C until processing.Ten-week-old male WT C57Bl/6J animals (Si Bei Fu Laboratory Animal Technology Co. Ltd.) were dosed either with vehicle or 50–250 mg/kg JN-170 by oral gavage and blood and urine samples were collected as described. All animals had unrestricted access to food and water during the study; C57Bl/6J were kept on rodent maintenance diet from Beijing Keao Xieli, Pah^enu2 mice were kept on Teklad diet no. T.2018.
Urine and cage-wash samples were vortexed and centrifuged at 3,700g for 5 minutes to remove any solid precipitate. Neat samples and samples diluted 1:10 in water were further diluted 1:10 in crash solution (75% acetonitrile 25% methanol, 0.1% formic acid, 5 mM heavy labeled amino acids) to precipitate proteins. Samples were centrifuged at 3,700g for 5 minutes before the supernatant was transferred into an injection plate. Urine amino acid analysis was carried out using a quadrupole time of flight (QToF) LC-mass spectrometry (QToF-LC-MS) bioanalytical method. A standard curve of 1 mM down to 0.06 μM was used as the calibration curve to which samples were quantified. The amino acid concentrations were calculated with a 1/×2 linear regression over a concentration range of 60 nM to 1,000 μM of the individual amino acids. An Agilent QToF 6545 was operated in an accurate mass full scan range of 100–1,700 m/z positive ions formed by electrospray ionization with a normal phase HILIC chromatographic method. An Agilent InfinityLab Poroshell 120 HILIC-Z, 2.1 × 150 mm, 2.7 μm was used as the analytical column with 10 mM Ammonium Acetate in 0.1% FA as mobile phase A and 10 mM Ammonium Acetate in 95% ACN, 0.1% FA as mobile phase B. At a flow rate of 0.25 mL/min, the binary gradient increased from an initial 100% phase B to 90% phase B over 3 minutes. After 1.5 minutes, the gradient ramped to 80% mobile phase B. At 5.6 minutes into the gradient, mobile phase B ramped from 60% to 0% and held for 2 minutes before returning to initial conditions at 7.5 minutes. The gradient was stopped at 10 minutes.Total urine amino acid amounts were calculated by multiplying urine amino acid concentrations by the urine volume and adding the amount of amino acid recovered in the cage wash, which was calculated by multiplying the cage wash amino acid concentration by the cage wash volume.

[1] = Fig S3b, Pahenu2 mice, individual animals
[2] = Pah^enu2 mice, 0–3 hours after 200 mg/kg

N#Cc1ccc(-c2noc([C@]3(C(F)(F)F)CCN(C(=O)NCCC4(N)CC4)C3)n2)cc1 [JN-170]
urinary excretion of Phe, Pah^enu2 vs WT mice (0–3 hours after 200 mg/kg): approximately 60 fold | change in 12 hour urine Arg excretion (Fig 3b) (50 mg/kg vs vehicle): 0.3802 log FC | change in 12 hour urine Gln excretion (Fig 3b) (50 mg/kg vs vehicle): 1.423 log FC | change in 12 hour urine Glu excretion (Fig 3b) (50 mg/kg vs vehicle): 0.4771 log FC | change in 12 hour urine His excretion (Fig 3b) (50 mg/kg vs vehicle): 1.279 log FC | change in 12 hour urine Lys excretion (Fig 3b) (50 mg/kg vs vehicle): 0.2248 log FC | change in 12 hour urine Met excretion (Fig 3b) (50 mg/kg vs vehicle): 0.6756 log FC | change in 12 hour urine Phe excretion (Fig 3b) (50 mg/kg vs vehicle): 1.34 log FC | change in 12 hour urine Pro excretion (Fig 3b) (50 mg/kg vs vehicle): -0.2483 log FC | change in 12 hour urine Ser excretion (Fig 3b) (50 mg/kg vs vehicle): 0.9904 log FC | change in 12 hour urine Thr excretion (Fig 3b) (50 mg/kg vs vehicle): 1.084 log FC | change in 12 hour urine Trp excretion (Fig 3b) (50 mg/kg vs vehicle): 1.144 log FC | change in 12 hour urine Tyr excretion (Fig 3b) (50 mg/kg vs vehicle): 1.331 log FC | 12-hour urine Phe excretion (Fig 3c) (50 mg/kg): 2329 µg and 2669 µg and 1215 µg and 2142 µg and 1931 µg and 2386 µg | change in 12 hour urine Arg excretion (Fig 3b) (100 mg/kg vs vehicle): 0.4771 log FC | change in 12 hour urine Gln excretion (Fig 3b) (100 mg/kg vs vehicle): 2.5092 log FC | change in 12 hour urine Glu excretion (Fig 3b) (100 mg/kg vs vehicle): 0.7782 log FC | change in 12 hour urine His excretion (Fig 3b) (100 mg/kg vs vehicle): 2.097 log FC | change in 12 hour urine Lys excretion (Fig 3b) (100 mg/kg vs vehicle): 0.583 log FC | change in 12 hour urine Met excretion (Fig 3b) (100 mg/kg vs vehicle): 1.421 log FC | change in 12 hour urine Phe excretion (Fig 3b) (100 mg/kg vs vehicle): 1.508 log FC | change in 12 hour urine Pro excretion (Fig 3b) (100 mg/kg vs vehicle): 0.2706 log FC | change in 12 hour urine Ser excretion (Fig 3b) (100 mg/kg vs vehicle): 1.62 log FC | change in 12 hour urine Thr excretion (Fig 3b) (100 mg/kg vs vehicle): 1.727 log FC | change in 12 hour urine Trp excretion (Fig 3b) (100 mg/kg vs vehicle): 1.687 log FC | change in 12 hour urine Tyr excretion (Fig 3b) (100 mg/kg vs vehicle): 1.929 log FC | 12-hour urine Phe excretion (Fig 3c) (100 mg/kg): 3398 µg and 3162 µg and 4227 µg and 2980 µg and 2439 µg and 2425 µg | 12-hour urinary Phe excretion, mean ± SD (200 mg/kg): 4,170 ± 1505 μg | change in 12 hour urine Arg excretion (Fig 3b) (200 mg/kg vs vehicle): 0.4472 log FC | change in 12 hour urine Gln excretion (Fig 3b) (200 mg/kg vs vehicle): 2.528 log FC | change in 12 hour urine Glu excretion (Fig 3b) (200 mg/kg vs vehicle): 0.7559 log FC | change in 12 hour urine His excretion (Fig 3b) (200 mg/kg vs vehicle): 2.089 log FC | change in 12 hour urine Lys excretion (Fig 3b) (200 mg/kg vs vehicle): 0.6206 log FC | change in 12 hour urine Met excretion (Fig 3b) (200 mg/kg vs vehicle): 1.349 log FC | change in 12 hour urine Phe excretion (Fig 3b) (200 mg/kg vs vehicle): 1.635 log FC | change in 12 hour urine Pro excretion (Fig 3b) (200 mg/kg vs vehicle): 0.1887 log FC | change in 12 hour urine Ser excretion (Fig 3b) (200 mg/kg vs vehicle): 1.594 log FC | change in 12 hour urine Thr excretion (Fig 3b) (200 mg/kg vs vehicle): 1.712 log FC | change in 12 hour urine Trp excretion (Fig 3b) (200 mg/kg vs vehicle): 1.74 log FC | change in 12 hour urine Tyr excretion (Fig 3b) (200 mg/kg vs vehicle): 1.783 log FC | 12-hour urine Phe excretion (Fig 3c) (200 mg/kg): 3871 µg and 5519 µg and 1571 µg and 5260 µg and 3572 µg and 5225 µg | change in 12 hour urine Arg excretion (Fig 3b) (250 mg/kg vs vehicle): 0.6435 log FC | change in 12 hour urine Gln excretion (Fig 3b) (250 mg/kg vs vehicle): 2.17 log FC | change in 12 hour urine Glu excretion (Fig 3b) (250 mg/kg vs vehicle): 0.7482 log FC | change in 12 hour urine His excretion (Fig 3b) (250 mg/kg vs vehicle): 1.862 log FC | change in 12 hour urine Lys excretion (Fig 3b) (250 mg/kg vs vehicle): 0.7733 log FC | change in 12 hour urine Met excretion (Fig 3b) (250 mg/kg vs vehicle): 1.454 log FC | change in 12 hour urine Phe excretion (Fig 3b) (250 mg/kg vs vehicle): 1.613 log FC | change in 12 hour urine Pro excretion (Fig 3b) (250 mg/kg vs vehicle): 0.0877 log FC | change in 12 hour urine Ser excretion (Fig 3b) (250 mg/kg vs vehicle): 1.762 log FC | change in 12 hour urine Thr excretion (Fig 3b) (250 mg/kg vs vehicle): 1.809 log FC | change in 12 hour urine Trp excretion (Fig 3b) (250 mg/kg vs vehicle): 1.96 log FC | change in 12 hour urine Tyr excretion (Fig 3b) (250 mg/kg vs vehicle): 1.972 log FC | 12-hour urine Phe excretion (Fig 3c) (250 mg/kg): 2655 µg and 3486 µg and 5073 µg and 6377 µg and 3651 µg and 2501 µg | urine Gln excretion [1]: 800 and 1688 and 2419 and 1193 and 1615 | urine Phe excretion [1]: 1730 and 2424 and 3033 and 1556 and 1834 | glutamine excreted in urine, mean ± SD [2]: 1,543 ± 606 μg | urinary excretion of Phe, mean ± SD [2]: 2,115 ± 608 μg | increase in urinary Phe excretion (≥ 200 mg/kg, 12-hour urine, vs vehicle): > 40 fold
